According to the supplement of paper PMC13380429:

Legend:
Details in all cases: 72 h
Vero E6 [1] = experiment: relative viability EC50 (midpoint between 100% and the lowest measured viability); higher = less toxic
U2OS [2] = experiment: as above
HepG2 [3] = experiment: as above
Calu-3 [4] = experiment: as above
Vero E6 [5] = experiment: drug sensitivity score (DSS) for viability; higher = more toxic; extreme values may be limits of the assay
Caco-2 [6] = experiment: as above
U2OS [7] = experiment: as above
HepG2 [8] = experiment: as above
Calu-3 [9] = experiment: as above
Vero E6 [10] = experiment: cell viability relative to DMSO; higher = less toxic
Caco-2 [11] = experiment: as above
U2OS [12] = experiment: as above
HepG2 [13] = experiment: as above
Calu-3 [14] = experiment: as above
Caco-2 [15] = experiment: relative viability EC50 (midpoint between 100% and the lowest measured viability); higher = less toxic

Row | SMILES | relative viability EC50 (Vero E6 [1]) | relative viability EC50 (U2OS [2]) | relative viability EC50 (HepG2 [3]) | relative viability EC50 (Calu-3 [4]) | drug sensitivity score (Vero E6 [5]) | drug sensitivity score (Caco-2 [6]) | drug sensitivity score (U2OS [7]) | drug sensitivity score (HepG2 [8]) | drug sensitivity score (Calu-3 [9]) | cell viability (Vero E6 [10]; 1 nM) | cell viability (Vero E6 [10]; 10 nM) | cell viability (Vero E6 [10]; 100 nM) | cell viability (Vero E6 [10]; 1000 nM) | cell viability (Vero E6 [10]; 10000 nM) | cell viability (Caco-2 [11]; 1 nM) | cell viability (Caco-2 [11]; 10 nM) | cell viability (Caco-2 [11]; 100 nM) | cell viability (Caco-2 [11]; 1000 nM) | cell viability (Caco-2 [11]; 10000 nM) | cell viability (U2OS [12]; 1 nM) | cell viability (U2OS [12]; 10 nM) | cell viability (U2OS [12]; 100 nM) | cell viability (U2OS [12]; 1000 nM) | cell viability (U2OS [12]; 10000 nM) | cell viability (HepG2 [13]; 1 nM) | cell viability (HepG2 [13]; 10 nM) | cell viability (HepG2 [13]; 100 nM) | cell viability (HepG2 [13]; 1000 nM) | cell viability (HepG2 [13]; 10000 nM) | cell viability (Calu-3 [14]; 1 nM) | cell viability (Calu-3 [14]; 10 nM) | cell viability (Calu-3 [14]; 100 nM) | cell viability (Calu-3 [14]; 1000 nM) | cell viability (Calu-3 [14]; 10000 nM) | relative viability EC50 (Caco-2 [15])
1 | O=C1NC(=O)c2cc(Nc3ccc(F)cc3)c(Nc3ccc(F)cc3)cc21 | > 10 µM | > 10 µM | 1.91 µM | > 10 µM | 0 | 2.2 | 0 | 4 | 0.5 | 96.9% | 97.1% | 99.9% | 93.5% | 103% | 93.9% | 88.6% | 95.2% | 93.3% | 70.2% | 95% | 100% | 97.2% | 101% | 87.9% | 101% | 93.9% | 101% | 91.8% | 49.7% | 106% | 106% | 94.7% | 106% | 77.8% | 
2 | Clc1ccc(C(c2ccc(Cl)cc2)C(Cl)(Cl)Cl)cc1 [4,4'-DDT] | > 10 µM | > 10 µM | > 10 µM | > 10 µM | 0 | 0 | 0 | 0 | 0 | 103% | 105% | 105% | 102% | 99.9% | 99.1% | 102% | 105% | 95.2% | 97.8% | 103% | 101% | 100% | 97.3% | 106% | 98.5% | 104% | 97.5% | 95.8% | 98.2% | 99.1% | 110% | 93% | 105% | 95.6% | > 10 µM
3 | Cc1[nH]c2ccc(F)cc2c1-c1nc2c3cccnc3c3ncccc3c2[nH]1 [APTO-253] | > 10 µM | 1.47 µM | 2.07 µM | 0.639 µM | 0 | 0.6 | 7 | 4.5 | 13 | 96.2% | 94.6% | 94% | 95.9% | 86.9% | 95.9% | 100% | 94.7% | 88.3% | 90.3% | 96.7% | 96.6% | 97.9% | 80.1% | 27.4% | 93.2% | 97.2% | 96.7% | 92.1% | 42% | 111% | 93.9% | 95.2% | 36.6% | 5.3% | > 10 µM
4 | NC1=N[C@@](c2cccc(-c3cncnc3)c2)(c2ccnc(C(F)F)c2)c2cccc(F)c21 [AZD3839] | > 10 µM | > 10 µM | > 10 µM | > 10 µM | 0 | 0 | 0 | 0 | 0 | 110% | 106% | 99.9% | 102% | 104% | 107% | 102% | 101% | 96.1% | 97% | 95.4% | 99% | 106% | 97.9% | 94.5% | 108% | 103% | 106% | 118% | 97.3% | 102% | 98.4% | 99.7% | 98.7% | 109% | > 10 µM
5 | CC(=O)N(O)C/C=C/c1cccc(Oc2ccccc2)c1 [BW-A4C] | > 10 µM | > 10 µM | > 10 µM | > 10 µM | 0 | 0 | 0.6 | 1.4 | 0 | 107% | 86.1% | 109% | 95.2% | 102% | 92.5% | 103% | 115% | 92.9% | 102% | 95.4% | 95.5% | 94.6% | 98.6% | 81.8% | 95.6% | 99.4% | 104% | 84.5% | 92.9% | 89.6% | 105% | 97.8% | 114% | 112% | > 10 µM
6 | C=CC(=O)Nc1cccc(Nc2nc(Nc3ccc(NC4CN(CCF)C4)cc3OC)ncc2C(F)(F)F)c1 [CNX-2006] | 1.97 µM | 2.21 µM | 3.34 µM | 0.464 µM | 5.9 | 5.9 | 4.7 | 3.8 | 13.3 | 102% | 102% | 101% | 88.7% | 26.7% | 105% | 100% | 99.1% | 83.7% | 38.3% | 102% | 98.7% | 98.8% | 92.7% | 37.2% | 99.9% | 110% | 97.3% | 102% | 27.6% | 96.2% | 99.4% | 77.9% | 44.4% | 10% | 1.51 µM
7 | Nc1nc(Nc2ccccc2)nc2c1ncn2[C@@H]1O[C@H](CO)[C@@H](O)[C@H]1O [CV-1808] | > 10 µM | > 10 µM | > 10 µM | > 10 µM | 0 | 0 | 0 | 0 | 0 | 94% | 93% | 94.5% | 96.3% | 97.2% | 98.9% | 93% | 101% | 105% | 99.3% | 103% | 100% | 98.5% | 106% | 105% | 95.4% | 94.2% | 109% | 98.8% | 94.9% | 101% | 106% | 93% | 110% | 106% | > 10 µM
8 | CC(C)c1nc(CN(C)C(=O)N[C@H](C(=O)N[C@@H](Cc2ccccc2)C[C@H](O)[C@H](Cc2ccccc2)NC(=O)OCc2cncs2)C(C)C)cs1 [Ritonavir] | > 10 µM | > 10 µM | > 10 µM | > 10 µM | 0 | 1.2 | 0 | 0 | 0.1 |  |  |  |  |  | 99.9% | 90.5% | 94.4% | 96.9% | 77.6% | 93.7% | 97.8% | 100% | 99.2% | 96.4% | 103% | 93.9% | 97.2% | 96.8% | 93.8% | 97.4% | 89.1% | 94.9% | 103% | 86.3% | > 10 µM
9 | Oc1cc2c(cc1O)CN(C(=S)NCCc1ccc(Cl)cc1)CCC2 [capsazepine] | > 10 µM | > 10 µM | > 10 µM | > 10 µM | 0 | 2.5 | 0 | 0.1 | 0 | 101% | 101% | 101% | 92.2% | 98.8% | 90.9% | 98.4% | 91.2% | 90.2% | 65.8% | 98.2% | 103% | 97.3% | 101% | 97.7% | 103% | 114% | 107% | 100% | 86.9% | 107% | 103% | 110% | 104% | 92.6% | 
10 | O=C(c1ccc(F)c(F)c1Nc1ccc(I)cc1F)N1CC(O)([C@@H]2CCCCN2)C1 [cobimetinib] | 0.0591 µM | 1.43 µM | 0.0341 µM | 0.238 µM | 13 | 8.3 | 7.4 | 24.5 | 11.9 | 90.2% | 86.1% | 72.9% | 50.2% | 45.7% | 89.5% | 82.8% | 84.8% | 69.1% | 63.1% | 96.5% | 94.5% | 94.3% | 75.8% | 23.6% | 94.3% | 86.7% | 32.8% | 24.5% | 17.1% | 93.2% | 86.6% | 81.4% | 50.1% | 32.7% | 
11 | NC(=O)NCCN1CCN(c2cccc(C(F)(F)F)c2)CC1 [fluprazine] | > 10 µM | > 10 µM | > 10 µM | > 10 µM | 0 | 2 | 0 | 0 | 0 | 103% | 99.5% | 110% | 110% | 104% | 107% | 86.5% | 85.3% | 96.8% | 72.3% | 102% | 103% | 94.3% | 101% | 99.9% | 93.3% | 112% | 110% | 97.7% | 109% | 105% | 97.6% | 101% | 91.7% | 99.5% | 
12 | O[C@H]1[C@H](O)[C@@H](O)[C@H](O)[C@@H](O)[C@H]1O [inositol] | > 10 µM | > 10 µM | > 10 µM | > 10 µM | 0 | 1 | 0 | 0 | 0 | 110% | 101% | 98.1% | 99.4% | 99.5% | 95.8% | 111% | 91% | 105% | 69.8% | 106% | 104% | 96.7% | 103% | 101% | 123% | 102% | 105% | 93.3% | 98.8% | 112% | 94.6% | 104% | 96.1% | 100% | 
13 | Cc1ccc(C(=O)N(CCCN)[C@@H](c2nc3cc(Cl)ccc3c(=O)n2Cc2ccccc2)C(C)C)cc1 [ispinesib] | 0.029 µM | 0.0446 µM | 0.0173 µM | 2.29 µM | 19.5 | 12.1 | 19.4 | 25.4 | 6.9 | 103% | 94% | 42.4% | 40.8% | 38.1% | 93.7% | 81.5% | 68.8% | 64% | 63.1% | 104% | 92.1% | 47.6% | 43.2% | 31.3% | 98.7% | 55.8% | 38.7% | 40% | 18.8% | 97.3% | 88.5% | 90.8% | 90% | 5.4% | 
14 | Cc1cccc(C)c1NC(=O)CN1CCN(CCCC(c2ccc(F)cc2)c2ccc(F)cc2)CC1 [lidoflazine] | > 10 µM | > 10 µM | > 10 µM | > 10 µM | 0.2 | 1.1 | 0 | 1 | 0 | 117% | 106% | 102% | 98.2% | 87.4% | 83.7% | 99.5% | 84.9% | 105% | 68.2% | 105% | 103% | 101% | 107% | 92.7% | 99.5% | 109% | 108% | 96.2% | 80.9% | 106% | 113% | 112% | 102% | 88.4% | 
15 | COC(=O)C1=C(C)NC(C)=C(C(=O)OC)C1c1ccccc1[N+](=O)[O-] [nifedipine] | > 10 µM | > 10 µM | > 10 µM | > 10 µM | 0 | 1.3 | 0 | 0 | 0 | 99.5% | 103% | 106% | 101% | 94.9% | 112% | 100% | 90.4% | 96.8% | 76.8% | 104% | 102% | 103% | 100% | 96.6% | 95.7% | 84.8% | 96.8% | 117% | 102% |  |  |  |  |  | > 10 µM
